Experimental data: patent publication US20230212571A1, “COMPOSITIONS AND METHODS FOR DELIVERING POLYNUCLEOTIDES” (NeOnc Technologies, Inc., priority 2020, published 2023)

Key:
AVM-BEC = format: cell-based
Protocol: The apoptotic and necrotic cell death was measured by flow cytometry using PI/Annexin V-Alexa Fluor 488 (ThermoFisher Scientific), following the manufacturer's instructions. After 24 h-treatments, cells were harvested, washed with cold PBS, and suspended in Annexin Binding Buffer (ThermoFisher Scientific) at a concentration of 1×10^6 cells/mL. Following addition of Annexin V and PI, cells were incubated at room temperature for 15 min in the ? dark, and additional 400 μL of 1× binding buffer was added to each sample. Positive controls of cell death were obtained treating cells with 50% ethanol. Ten thousand cells/sample were analyzed using a BD LSRII flow cytometer with the proper compensation controls and the FlowJo_V10 analysis software.
Cells were collected and analyzed for apoptosis, while supernatants were collected and analyzed for necrosis (Cell Death Detection ELISA^PLUS), and for PAI-1, VEGF (Quantikine ELISA Kit, R&D Systems) and TGF-β (Proteintech) protein content, following the manufacturers' instructions. Absorbance was measured using a Fluostar Omega microplate reader (BMG Labtech). Data were normalized to kit controls and number of producing cells.

[1] = Pharmacokinetic study of miR-18a in serum and brain by RT-qPCR; format: in vivo, C57BL/6 mice
Excerpt: All animal protocols were approved by the USC's Institutional Animal Care and Use Committee (IACUC) and strictly adhered to. MiR-18a was co-administered with Ago-2 (0.0008 nmol/mouse) to increase stability and cellular uptake^9 (Ferreira R, Santos T, Amar A, et al. Argonaute-2 promotes miR-18a entry in human brain endothelial cells. J Am Heart Assoc. 2014; 3(3):e000968). (FIG. 9). Details about randomization, blinding, group size and inclusion/exclusion criteria have been included in Methods.
For pharmacokinetic measurements, 0.8 nmol/mouse of miR-18a were administered IV or IN to C57BL/6 mice. At the indicated time points, mice were euthanized, and the serum and brains were collected and flash-frozen in liquid nitrogen (n=6 per time-point and condition). MicroRNAs were isolated using the mirVana™ miRNA Isolation Kit and measured by RT-qPCR as described above.

[2] = test system: Mgp^−/− mouse model of AVM; assay: Brain appearance and immunostaining of brain sections; format: in vivo; settings: Mgp^−/− mice, IN 2-weeks
Protocol: Immunostaining was performed as previously described^15. ([…], Golden […], et al. Glioma-associated endothelial cells are chemoresistant to temozolomide. J Neurooncol. 2009; 95(1):13-22). Primary antibodies used were rabbit anti-MMP2, mouse anti-MMP9 (1:150, Abgent), rabbit anti-phospho-Smad1/5 ([…]/465) (1:50, Abgent), rabbit anti-BMP4, rabbit anti-PAI-1 (1:50, Proteintech), rabbit anti-VEGF (1:50, Santa Cruz Biotechnology), rabbit anti-HIF-1α (1:50, Cell Signaling Technology), and rabbit anti-phospho-Smad3 ([…]/425) (1:50, GeneTex). Secondary antibodies used were biotinylated anti-rabbit and biotinylated anti-mouse (1:300, Vector Laboratories), accordingly. Pictures were taken in an Eclipse 80i microscope (Nikon). Images shown are representative of three-five independent experiments. In vivo efficacy studies were performed using 3-week-old Mgp^+/- C57BL/6 mice^16,17 (Yao Y, Jumabay M, Wang A, Boström K I. Matrix Gla protein deficiency causes arteriovenous malformations in mice. J Clin Invest. 2011; 121(8):2993-3004) (Yao Y, Yao […], et al. Reducing Jagged 1 and 2 levels prevents cerebral arteriovenous malformations in matrix Gla protein deficiency. Proc Nat Acad Sci USA. 2013; 110(47):19071-19076). provided by Dr. Yucheng Yao (UCLA, Los Angeles) and mated to obtain the appropriate genotypes. Only about 10-15% of each litter were born with the Mgp^-/- genotype, and among those, only about 45% survived until the end of the treatment and/or the imaging of the brain vasculature, due to the extreme severity of the disease in this mouse model. These animals not only suffer AVMs in the brain, but all major organs are also affected and dysfunctional. Thus, […] might die due to several causes, including stroke, severe lung inflammation that causes respiratory failure-especially when anesthesia is used-, organ failure due to liver and/or spleen malfunction, heart failure, etc., drastically limiting the number of the Mgp^-/- mice available for the CTA studies. […] Treatment with 0.08 nmol/mouse of miR-18a or scramble microRNA was administered IN daily for 2-weeks. 2.5 μL/nostril were delivered in RNase-free water. Ultra-high-resolution in vivo computed tomography angiography (CTA) was performed in mice for 3D imaging of whole brain vascular architecture^18, ([…], Rendon D, et al. Ultra-High-Resolution In vivo Computed Tomography Imaging of Mouse Cerebrovasculature Using a Long Circulating Blood Pool Contrast Agent. Scientific reports. 2015; 5:10178) as described in Data. The vascular data was quantified using ImageJ. Regions of interest encompassing the Circle of Willis (CoW) and the azygous of the anterior cerebral artery (AzACA) and its branches were selected in CT images using thick slab maximum intensity projection (MIP) or 3D volume rendering. The images were converted to 8-bit grayscale and thresholded to highlight the vasculature containing pixels. The pixels were analyzed as particles and normalized to results from the wildtype mice (WT, Mgp^+/+). Immediately after imaging, mice were euthanized, and brains were frozen in Clear Frozen Section Compound (VWR) and stored at -80° C. Blood was collected for complete blood count (Antech). The lungs, livers, spleens, femurs, and kidneys were harvested and fixed in 10% formalin. Photographs of the stained sections were captured using an Eclipse 80i microscope (Nikon).

Substance: hsa-miR-18a-5p (UAGGUGCAUCUAGUGCAGAUAG; chemistry not given here; listed as Homo sapiens) [small non-coding RNA molecule involved in post-transcriptional regulation of gene expression; Dharmacon]
- cell death (apoptosis, necrosis) (AVM-BEC): does not increase cell death
- miR-18a levels compared to scramble microRNA-treated mice ([1]; 0.8 nmol/mouse IV or IN, C57BL/6 mice): approximately 40 times
- retention of miR-18a, IN compared with IV ([1]; 0.8 nmol/mouse, IN administration): longer retention times
- time of highest levels of miR-18a in serum and brains, IV compared with IN ([1]; 0.8 nmol/mouse, IV administration): earlier
- amount of microRNA in the brain, times the basal levels of miR-18a ([1]; IN administration, 0.8 nmol/mouse): approximately 40 times
- time required to reach the peak levels ([1]; IN administration, brain): 2 h
- activation (phosphorylation) of Smad1/5 in brain sections (IHC) [2]: decreased
- expression of BMP4 in brain sections (IHC) [2]: decreased
- expression of HIF-1α in brain sections (IHC) [2]: decreased
- expression of PAI-1 in brain sections (IHC) [2]: decreased
- expression of VEGF in brain sections (IHC) [2]: decreased
- signs of fresh hemorrhage and presence of abnormally enlarged blood vessels in the brain [2]: reduced
